Results: PMC10530652 (BME Frontiers, 2021)

What was measured:
[1] = Stability study of AZD1236 aqueous formulation (HPLC); type: physicochemical; settings: for Conc. / pH: aqueous formulation; for Conc. / Total imp. RRT(%): HPLC; for ∆%: relative to starting concentration of 70µg/5mL
Description: Summary table of stability as assessed by HPLC over 24 months stored under GMP conditions at RT. Data shown in blue represents inverted position vials. ∆% is relative to starting concentration of 70µg/5mL at time zero. Acceptance criteria: Retention time (RT) for AZD1236 is 3.97 min (Range 3.40-4.50 min). Total impurities – report as RRT (%) for each impurity. Biological functionality LOD = >21µg/5mL. pH 7.5 (7.0-8.0).

[2] = tested on: stimulated human neutrophils; assay: FIB One cleavage in supernatant from stimulated neutrophils; type: cell-based; settings: FIB One 1 μM, 10 min incubation with neutrophil supernatant
Description: Neutrophils were isolated from the blood of healthy human volunteers as previously described. The number of retrieved neutrophils was determined with NucleoCounter NC-1000 (Chemo Metec). Neutrophils were resuspended at a concentration of 20×10^6 mL^-1 in 0.9% NaCl with 0.9 mM CaCl2. Cells were incubated for 30 min at 37°C. Cells to be stimulated were subsequently activated with 5 μM calcium ionophore A23187 (Tocris Bioscience) for 30 min at 37°C. Neutrophils were harvested by centrifugation at 400 x g for 5 min. Supernatants were removed and stored. Plate reader assays were performed as described above, with the MMP buffer replaced with neutrophil supernatant. All experiments were carried out in duplicate using three independent donors (one donor per independent repeat). Data were normalised by background subtraction of intrinsic fluorescence.

[3] = tested on: MMP activity in the alveolar space; assay: In-human alveolar FCFM imaging after endobronchial delivery of FIB One; type: in vivo; settings: FIB One microdose <100 μg, bolus, patients with parenchymal fibrosis, n=4
Description: All participants were scheduled for routine, clinical diagnostic flexible bronchoscopy in our institution with a known or suspected diagnosis of fibrosis or lung cancer. All eight patients had computerized tomography performed prior to bronchoscopy and regions of active disease identified for targeted investigation.
Bronchoscopy was undertaken in an outpatient suite using local anaesthetic and conscious sedation or in theatre under general anaesthetic. FCFM was performed using a clinically approved confocal laser scanning endomicroscopy device (Cellvizio®, Mauna Kea Technologies) with a compatible imaging fibre (Alveoflex™ or Miniaturized Alveoflex™, Mauna Kea Technologies).
In initial exploratory testing, 8 patients with either endobronchial tumour or parenchymal fibrosis underwent FIB One microdosing (<100 μg, <5 mL). […] Images were recorded for at least 30 s at 12 frames/second.
All video sequences were assessed by two clinicians with clinical experience of pulmonary endomicroscopy. […] Videos were assessed to ensure stability throughout the imaging procedure. […] All video files were analysed using the Cellvizio® Viewer image processing software from Mauna Kea Technologies, Paris. […] The median RFU was calculated for each category and used as a comparative value between groups.

[4] = tested on: Salmonella typhimurium strain TA98; assay: Reduced test article AMES test, TA98; type: cell-based; settings: up to 250 μg/well, in the absence and presence of rat liver S-9
Description: These conditions included treatments at concentrations up to 250 μg/well (a 20-fold pro rata reduction from the standard regulatory Ames assay maximum concentration), in the absence and in the presence of a rat liver metabolic activation system (S-9).

patients = assay: Laboratory results in patients after FIB One delivery; type: in vivo, human
Text: Table S1: Laboratory results. […] Statistical analysis using paired t-test. (Hb= haemoglobin; WCC= white cell count; ALT- alanine transaminase; CRP= C Reactive Protein).

[5] = room temperature, 12m, 1st of 2 vials
[6] = room temperature, 12m, 2nd of 2 vials
[7] = room temperature, 18m, 1st of 2 vials
[8] = room temperature, 18m, 2nd of 2 vials
[9] = room temperature, 24m, 1st of 2 vials
[10] = room temperature, 24m, 2nd of 2 vials
[11] = room temperature, 1m, 1st of 2 vials
[12] = room temperature, 1m, 2nd of 2 vials
[13] = room temperature, 3m, 1st of 2 vials
[14] = room temperature, 3m, 2nd of 2 vials
[15] = room temperature, 6m, 1st of 2 vials
[16] = room temperature, 6m, 2nd of 2 vials
[17] = room temperature, 10.5m, 1st of 2 vials
[18] = room temperature, 10.5m, 2nd of 2 vials
[19] = room temperature, 24h, 1st of 2 vials
[20] = room temperature, 24h, 2nd of 2 vials
[21] = room temperature, 15d, 1st of 2 vials
[22] = room temperature, 15d, 2nd of 2 vials

## AZD1236
[1]; 24 months, GMP conditions at RT, biological functionality LOD = >21µg/5mL
  biological functionality in aqueous formulation: remains biologically functional
[1]; after 24 months, stored at ambient temperature
  degradation in aqueous formulation of the drug product (HPLC traces): no degradation
[1]; room temperature, 1m, 1st of 2 vials (one inverted)
  Conc.: 77.0 µg per 5mL
[1]; room temperature, 1m, 2nd of 2 vials (one inverted)
  Conc.: 76.8 µg per 5mL
[1]; room temperature, 3m, 1st of 2 vials (one inverted)
  Conc.: 69.4 µg per 5mL
[1]; room temperature, 3m, 2nd of 2 vials (one inverted)
  Conc.: 69.4 µg per 5mL
[1]; room temperature, 6m, 1st of 2 vials (one inverted)
  Conc.: 70.8 µg per 5mL
[1]; room temperature, 6m, 2nd of 2 vials (one inverted)
  Conc.: 70.6 µg per 5mL
[1]; room temperature, 10.5m, 1st of 2 vials (one inverted)
  Conc.: 71.1 µg per 5mL
[1]; room temperature, 10.5m, 2nd of 2 vials (one inverted)
  Conc.: 70.7 µg per 5mL
[1]; [5]
  pH: 7.5
  ∆%: +0.00%
  Total imp. RRT(%): ND/NQ ND/NQ
[1]; [6]
  pH: 7.5
  ∆%: -1.15%
  Total imp. RRT(%): ND/NQ ND/NQ
[1]; room temperature, 12m, 1st of 2 vials (one inverted)
  Conc.: 70.0 µg per 5mL
[1]; room temperature, 12m, 2nd of 2 vials (one inverted)
  Conc.: 69.2 µg per 5mL
[1]; [7]
  pH: 7.5
  ∆%: +0.6%
  Total imp. RRT(%): ND/NQ ND/NQ
[1]; [8]
  pH: 7.5
  ∆%: +0.3%
  Total imp. RRT(%): ND/NQ ND/NQ
[1]; room temperature, 18m, 1st of 2 vials (one inverted)
  Conc.: 70.4 µg per 5mL
[1]; room temperature, 18m, 2nd of 2 vials (one inverted)
  Conc.: 70.2 µg per 5mL
[1]; [9]
  pH: 7.5
  ∆%: +4.2%
  Total imp. RRT(%): ND/NQ ND/NQ
[1]; [10]
  pH: 7.5
  ∆%: +3.6%
  Total imp. RRT(%): ND/NQ ND/NQ
[1]; room temperature, 24m, 1st of 2 vials (one inverted)
  Conc.: 72.96 µg per 5mL
[1]; room temperature, 24m, 2nd of 2 vials (one inverted)
  Conc.: 72.52 µg per 5mL
[1]; room temperature, 24h, 1st of 2 vials (one inverted)
  Conc.: 74.3 µg per 5mL
[1]; room temperature, 24h, 2nd of 2 vials (one inverted)
  Conc.: 74.5 µg per 5mL
[1]; room temperature, 15d, 1st of 2 vials (one inverted)
  Conc.: 70.2 µg per 5mL
[1]; room temperature, 15d, 2nd of 2 vials (one inverted)
  Conc.: 70.3 µg per 5mL
[1]; timepoint 0
  pH: 7.5
[1]; [11]
  ∆%: +10.0%
  Total imp. RRT(%): ND/NQ ND/NQ
[1]; [12]
  ∆%: +9.70%
  Total imp. RRT(%): ND/NQ ND/NQ
[1]; [13]
  ∆%: -0.90%
  Total imp. RRT(%): ND/NQ ND/NQ
[1]; [14]
  ∆%: -0.90%
  Total imp. RRT(%): ND/NQ ND/NQ
[1]; [15]
  ∆%: +1.00%
  Total imp. RRT(%): ND/NQ ND/NQ
[1]; [16]
  ∆%: +0.80%
  Total imp. RRT(%): ND/NQ ND/NQ
[1]; [17]
  ∆%: +1.50%
  Total imp. RRT(%): ND/NQ ND/NQ
[1]; [18]
  ∆%: +1.00%
  Total imp. RRT(%): ND/NQ ND/NQ
[1]; [19]
  ∆%: +6.0%
  Total imp. RRT(%): ND/NQ ND/NQ
[1]; [20]
  ∆%: +6.0%
  Total imp. RRT(%): ND/NQ ND/NQ
[1]; [21]
  ∆%: +0.14%
  Total imp. RRT(%): ND/NQ ND/NQ
[1]; [22]
  ∆%: +0.21%
  Total imp. RRT(%): ND/NQ ND/NQ

## (Pro-Phe-Gly-Nle-Lys-βAla)3 [FIB One]
[2]
  cleavage of FIB One: cleaved
[3]
  alveolar FCFM fluorescent signal following endobronchial delivery: increased fluorescent signal
[4]
  mutation induction: did not induce mutation
patients; blood 4-6 hours post FIB One delivery, mean (sd), baseline 4.3 (0.4)
  Potassium: 4.2 (0.4) mmol/L
patients; blood 4-6 hours post FIB One delivery, mean (sd), baseline 4.6 (1.3)
  Urea: 4.7 (1.1) mmol/L
patients; blood 4-6 hours post FIB One delivery, mean (sd), baseline 5.4 (8.1)
  CRP: 5.2 (8.1) mg/L
patients; blood 4-6 hours post FIB One delivery, mean (sd), baseline 7.6 (1.1), p <0.0001
  WCC: 10.9 (2.9) x10^9/L
patients; blood 4-6 hours post FIB One delivery, mean (sd), baseline 12.5 (5.3)
  Bilirubin: 12.4 (4.6) umol/L
patients; blood 4-6 hours post FIB One delivery, mean (sd), baseline 25.2 (18.2)
  ALT: 23.8 (15.2) IU/L
patients; blood 4-6 hours post FIB One delivery, mean (sd), baseline 77.5 (11.5)
  Creatinine: 77.3 (12.1) umol/L
patients; blood 4-6 hours post FIB One delivery, mean (sd), baseline 138.9 (2.7), p 0.01
  Sodium: 137.7 (3.2) mmol/L
patients; blood 4-6 hours post FIB One delivery, mean (sd), baseline 148.6 (11.3), p 0.0002
  Hb: 143 g/L
patients; blood 4-6 hours post FIB One delivery, mean (sd), baseline 221.5 (53.2)
  Platelets: 221.2 (52.6) x10^9/L
patients; pre procedure vs 4-6 hours post FIB One delivery
  clinically significant alterations of laboratory results: no clinically significant alterations
